Experimental data as given in patent US20050182078A1, “2-(Pyridin-3-ylamino)-pyrido[2,3-D]pyrimidin-7-ones” (WARNER-LAMBERT COMPANY, LLC, priority 2004, published 2005).
Counter-ions that a name gives are not always drawn.

Columns and labels:
neointima formation = conditions: in rats; Brooks E. E. et al., J. Biol. Chem. 1997; cited from earlier work
CDK4/Cyclin D = CDK4/Cyclin D (Homo sapiens, UniProt P11802); test: Assay for Inhibition of CDK4/Cyclin D; assay type: biochemical; conditions: 20 ng CDK4, retinoblastoma protein substrate, 25 μM ATP, 25° C. 15 minutes
Procedure: (§1) To determine the inhibitory potency and selectivity of compounds of the present invention against CDK4 and related kinases, compounds were evaluated in standard assays routinely used to measure inhibition of cyclin-dependent kinase enzymes and other protein kinases (see for example D. W. Fry et al., J. Biol. Chem. 2001, 276, 16617-16623). The assays were carried out as described below.
Assay for Inhibition of CDK4/Cyclin D
The CDK4 enzyme assay for IC50 determination and kinetic evaluation is performed as follows. 96-well filter plates (Millipore MADVN6550, Bedford, Mass.) are used. The total volume is 0.1 mL containing buffer A (20 mM TRIS (tris[hydroxymethyl]aminomethane)) (pH 7.4), 50 mM NaCl, 1 mM dithiothreitol, 10 mM MgCl2), 25 μM ATP containing 0.25 μCi [^32P]ATP, 20 ng CDK4, 1 μg retinoblastoma protein and the test compound at appropriate dilutions in buffer A. Buffer A alone without added test compound was employed as a control for no inhibition. Buffer A containing excess EDTA was used to determine the level of background ^32P in the absence of enzyme activity. All components except the ATP are added to the wells, and the plate is placed on a plate mixer for 2 minutes. The reaction is started by adding [^32P]ATP, and the plate is incubated at 25° C. for 15 minutes. The reaction is terminated by addition of 0.1 mL 20% trichloroacetic acid (TCA). The plate is kept at 4° C. for at least 1 hour to allow the substrate to precipitate. The wells are then washed five times with 0.2 mL 10% TCA, and ^32P incorporation is determined with a beta plate counter (Wallac Inc., Gaithersburg, Md.). The IC50 of the test compound was determined using the median effect method (Chou, T-C and Talalay, P. Applications of the median effect principle for the assessment of low-dose risk of carcinogens and for the quantitation of synergism and antagonism of chemotherapeutic agents. In: New Avenues in Developmental Cancer Chemotherapy (Eds. Harrap, K. T. and Connors, T. A.), pp. 37-64. Academic Press, New York, 1987).

CDK2/cyclin A = CDK2/cyclin A (Homo sapiens, UniProt P24941); test: Assay for Inhibition of CDK2/Cyclin A; assay type: biochemical; conditions: 20 ng CDK2/cyclin A, retinoblastoma protein substrate, [32P]ATP, 25° C. 15 minutes
Procedure: as §1
Assay for Inhibition of CDK2/Cyclin A
CDK2 enzyme assays for IC50 determinations and kinetic evaluation are performed as follows. 96-well filter plates (Millipore MADVN6550, Bedford, Mass.) are used. The final assay volume is 0.1 mL containing buffer A (20 mM TRIS (tris[hydroxymethyl]aminomethane) (pH 7.4), 50 mM NaCl, 1 mM dithiothreitol, 10 mM MgCl2), […] ATP containing 0.25 μCi [^32P]ATP, 20 ng CDK2/cyclin A, 1 μg retinoblastoma protein, and the test compound at appropriate dilutions in buffer A (Buffer A alone without added test compound was employed as a control for no inhibition. Buffer A containing excess ethylenediamine tetra acetic acid (EDTA) was used to determine the level of background ^32P in the absence of enzyme activity). All components except the ATP are added to the wells, and the plate is placed on a plate mixer for 2 minutes. The reaction is initiated by addition of [^32P]ATP, and the plate is incubated at 25° C. for 15 minutes. The reaction is terminated by addition of 0.1 mL 20% trichloroacetic acid (TCA). The plate is kept at 4° C. for at least 1 hour to allow the substrate to precipitate. The wells are then washed five times with 0.2 mL 10% TCA, and ^32P incorporation is determined with a beta plate counter (Wallac Inc., Gaithersburg, Md.). The IC50 of the test compound was determined using the median effect method (Chou, T-C and Talalay, P. Applications of the median effect principle for the assessment of low-dose risk of carcinogens and for the quantitation of synergism and antagonism of chemotherapeutic agents. In: New Avenues in Developmental Cancer Chemotherapy (Eds. Harrap, K. T. and Connors, T. A.), pp. 37-64. Academic Press, New York, 1987).

Chain of CDK4/Cyclin D (P11802 whole entry, species assumed): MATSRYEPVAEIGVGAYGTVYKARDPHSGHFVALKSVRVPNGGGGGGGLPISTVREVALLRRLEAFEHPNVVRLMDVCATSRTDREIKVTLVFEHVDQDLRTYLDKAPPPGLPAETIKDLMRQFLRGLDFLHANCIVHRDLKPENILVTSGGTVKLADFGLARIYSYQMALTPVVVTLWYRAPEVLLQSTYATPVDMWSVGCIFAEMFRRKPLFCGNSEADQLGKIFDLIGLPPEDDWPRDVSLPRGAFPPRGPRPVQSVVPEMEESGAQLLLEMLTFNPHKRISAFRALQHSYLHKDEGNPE
Chain of CDK4/Cyclin D (P24385 whole entry partner, species assumed): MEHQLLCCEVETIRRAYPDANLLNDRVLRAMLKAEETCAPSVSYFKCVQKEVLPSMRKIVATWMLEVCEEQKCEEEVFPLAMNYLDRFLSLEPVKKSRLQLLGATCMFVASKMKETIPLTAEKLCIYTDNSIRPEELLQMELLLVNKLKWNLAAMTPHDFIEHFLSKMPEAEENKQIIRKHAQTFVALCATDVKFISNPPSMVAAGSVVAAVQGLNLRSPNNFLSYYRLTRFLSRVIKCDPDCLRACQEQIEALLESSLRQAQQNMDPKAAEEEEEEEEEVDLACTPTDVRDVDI

IC50 (CDK4/Cyclin D) [nM]	melting point [°C]	IC50 (CDK2/cyclin A) [nM]	SMILES	inhibition of neointima formation (neointima formation)
–	–	–	COc1ccc(CNc2nc(N(CCO)CCO)nc3c2ncn3C(C)C)cc1 [CVT-313]	greater than 80%
535	156 to 158	235	CC(C)n1c(=O)ccc2cnc(Nc3cccnc3)nc21 [Example 1, 8-Isopropyl-2-(pyridin-3-ylamino)-8H-pyrido[2,3-d]pyrimidin-7-one]	–
82	181 to 182	29	COc1ccc(Nc2ncc3ccc(=O)n(C4CCCC4)c3n2)cn1 [Example 2, 8-Cyclopentyl-2-(6-methoxy-pyridin-3-ylamino)-8H-pyrido[2,3-d]pyrimidin-7-one]	–
12	–	190	O=c1c(Br)cc2cnc(Nc3ccc(N4CCNCC4)nc3)nc2n1C1CCCC1 [Example 3, 6-Bromo-8-cyclopentyl-2-(6-piperazin-1-yl-pyridin-3-ylamino)-8H-pyrido[2,3-d]pyrimidin-7-one hydrochloride salt]	–
99	254 to 256	1020	Cc1c(Br)c(=O)n(C2CCCC2)c2nc(Nc3ccc(N4CCOCC4)nc3)ncc12 [Example 4, 6-Bromo-8-cyclopentyl-5-methyl-2-(6-morpholin-4-yl-pyridin-3-ylamino)-8H-pyrido[2,3-d]pyrimidin-7-one]	–
–	224 to 226	–	CC(=O)c1c(C)c2cnc(Nc3ccc(N4CCOCC4)nc3)nc2n(C2CCCC2)c1=O [Example 5, 6-Acetyl-8-cyclopentyl-5-methyl-2-(6-morpholin-4-yl-pyridin-3-ylamino)-8H-pyrido[2,3-d]pyrimidin-7-one]	–
22	290	3200	Cc1c(Br)c(=O)n(C2CCCC2)c2nc(Nc3ccc(N4CCNCC4)nc3)ncc12 [Example 6, 6-Bromo-8-cyclopentyl-5-methyl-2-(6-piperazin-1-yl-pyridin-3-ylamino)-8H-pyrido[2,3-d]pyrimidin-7-one]	–
3	125	260	CC(=O)c1c(C)c2cnc(Nc3ccc(N4CCNCC4)nc3)nc2n(C2CCCC2)c1=O [Example 7, 6-Acetyl-8-cyclopentyl-5-methyl-2-(6-piperazin-1-yl-pyridin-3-ylamino)-8H-pyrido[2,3-d]pyrimidin-7-one]	–
